Assay results reported in BindingDB's records for doi:10.1021/bi049459m (University of Florida College of Medicine, 2004).

Legend:
Test in all cases: Protease Inhibition Assay
[1] = target: T1, Dimer of Gag-Pol polyprotein [489-587,K509R,V521I,L522F,M525I,I543V,L552P,A560V,V571A,I573V,L579M] (Human immunodeficiency virus 1, UniProt P04585, A560V/I543V/I573V/K509R/L522F/L552P/L579M/M525I/V521I/V571A)
T1 construct: 489-587

[2] = target: T2, Dimer of Gag-Pol polyprotein [489-587,K509R,V521I,L522F,M525I,I543V,L552P,A560V,V571A,L579M] (Human immunodeficiency virus 1, UniProt P04585, A560V/I543V/K509R/L522F/L552P/L579M/M525I/V521I/V571A); conditions: pH 4.7; 37 °C
T2 construct: 489-587

[3] = target: T3, Dimer of Gag-Pol polyprotein [489-587,K509R,V521I,L522F,M525I,L552P,A560V,V571A,I573V,L579M] (Human immunodeficiency virus 1, UniProt P04585, A560V/I573V/K509R/L522F/L552P/L579M/M525I/V521I/V571A)
T3 construct: 489-587

[4] = target: T4, Dimer of Gag-Pol polyprotein [489-587,K509R,V521I,L522F,M525I,L552P,A560V,V571A,L579M] (Human immunodeficiency virus 1, UniProt P04585, A560V/K509R/L522F/L552P/L579M/M525I/V521I/V571A); conditions: pH 4.7; 37 °C
T4 construct: 489-587

[5] = target: T5, Dimer of Gag-Pol polyprotein [489-587,K509R,V521I,L522F,M525I,M535I,I543V,L552P,A560V,V571A,I573V,L579M] (Human immunodeficiency virus 1, UniProt P04585, A560V/I543V/I573V/K509R/L522F/L552P/L579M/M525I/M535I/V521I/V571A)
T5 construct: 489-587

[6] = target: T6, Dimer of Gag-Pol polyprotein [489-587,K509R,V521I,L522F,M525I,M535I,L552P,A560V,V571A,I573V,L579M] (Human immunodeficiency virus 1, UniProt P04585, A560V/I573V/K509R/L522F/L552P/L579M/M525I/M535I/V521I/V571A)
T6 construct: 489-587

[7] = target: T7, Dimer of Gag-Pol polyprotein [489-587,K509R,V521I,L522F,M525I,M535I,L552P,A560V,V571A,L579M] (Human immunodeficiency virus 1, UniProt P04585, A560V/K509R/L522F/L552P/L579M/M525I/M535I/V521I/V571A); conditions: pH 4.7; 37 °C
T7 construct: 489-587

[8] = target: T8, Dimer of Gag-Pol polyprotein [489-587] (Human immunodeficiency virus 1, UniProt P04585); conditions: pH 4.7; 37 °C
T8 construct: 489-587

Cc1ccccc1CNC(=O)[C@H]1N(C(=O)[C@@H](O)[C@H](Cc2ccccc2)NC(=O)c2cccc(O)c2C)CSC1(C)C [AG1776]
Ki [1]: 9.4 nM
Ki [2]: 0.19 nM
Ki [3]: 0.55 nM
Ki [4]: 0.04 nM
Ki [5]: 5.6 nM
Ki [6]: 2.2 nM
Ki [7]: 0.5 nM
Ki [8]: 0.021 nM
